In publication PMC11671585, “Deciphering the molecular basis of lipoprotein recognition and transport by LolCDE” (Signal Transduction and Targeted Therapy, 2024):

Molecular target: T1, LolCDE (LolCD^E171QE) (Escherichia coli, UniProt P75957, E171Q)
T1 construct: gene lolD; full complex LolC, LolD dimer, LolE; 8xHis tag at C terminus of LolD; expressed in E. coli C43 (DE3); reconstituted in MSP1D1 nanodiscs with E. coli polar lipids; with Lipoprotein-releasing system transmembrane protein LolC; Lipoprotein-releasing system transmembrane protein LolE
T1 sequence (P75957 whole entry E171Q): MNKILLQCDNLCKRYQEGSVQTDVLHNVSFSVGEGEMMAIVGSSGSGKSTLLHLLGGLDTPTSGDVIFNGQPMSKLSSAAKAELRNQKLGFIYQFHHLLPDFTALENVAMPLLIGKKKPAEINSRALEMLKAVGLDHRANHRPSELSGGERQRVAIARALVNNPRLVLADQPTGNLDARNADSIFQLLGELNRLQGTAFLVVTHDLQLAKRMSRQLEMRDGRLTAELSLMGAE
T1 sequence (P75958 2-414, further chain): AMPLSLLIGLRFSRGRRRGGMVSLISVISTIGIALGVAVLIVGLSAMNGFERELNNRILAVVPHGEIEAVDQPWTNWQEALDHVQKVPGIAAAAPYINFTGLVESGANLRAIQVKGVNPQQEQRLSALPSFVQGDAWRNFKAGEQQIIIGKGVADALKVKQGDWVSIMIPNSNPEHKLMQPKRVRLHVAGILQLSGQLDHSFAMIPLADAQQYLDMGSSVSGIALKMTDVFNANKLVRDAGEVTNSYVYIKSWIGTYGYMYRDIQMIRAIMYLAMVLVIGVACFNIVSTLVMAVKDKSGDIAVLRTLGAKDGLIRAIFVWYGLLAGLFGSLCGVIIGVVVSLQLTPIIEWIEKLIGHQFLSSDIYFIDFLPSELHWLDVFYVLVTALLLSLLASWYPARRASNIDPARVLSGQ
T1 sequence (P0ADC3 whole entry, further chain): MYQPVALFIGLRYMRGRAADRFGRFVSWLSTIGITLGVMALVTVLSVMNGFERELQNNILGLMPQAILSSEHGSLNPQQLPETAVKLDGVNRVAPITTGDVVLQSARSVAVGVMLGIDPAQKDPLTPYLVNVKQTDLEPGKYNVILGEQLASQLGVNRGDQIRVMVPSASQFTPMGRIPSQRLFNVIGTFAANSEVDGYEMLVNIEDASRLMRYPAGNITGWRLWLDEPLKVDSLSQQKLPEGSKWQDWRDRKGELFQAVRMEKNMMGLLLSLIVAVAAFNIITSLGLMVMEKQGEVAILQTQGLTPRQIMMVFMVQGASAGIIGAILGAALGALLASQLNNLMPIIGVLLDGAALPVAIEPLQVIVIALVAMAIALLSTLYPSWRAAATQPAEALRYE
Assay: cryo-EM structure, […] Å, nanodiscs
Type: binding
Details: endogenous ATP with Mg2+, no nucleotide added; both catalytic sites of the LolD dimer; catalytically inactive mutant; pH 7.8

Nc1ncnc2c1ncn2[C@@H]1O[C@H](COP(=O)(O)OP(=O)(O)OP(=O)(O)O)[C@@H](O)[C@H]1O [ATP]
cryo-EM structure, 3.2 Å, nanodiscs: additional cryo-EM densities were observed in the catalytic pockets of LolD, which were identified as ATP
